This data set can be described thus: Mouse body weight / tolerability during treatment regimens. Type of data set: in vivo. How it is done: The treatment-naïve, patient-derived cell line, HD-MB03, was orthotopically engrafted into immunocompromised mice. Four days later, tumors were readily detectible via bioluminescence imaging. Thereafter mice were randomized into three cohorts, which were treated with either the vehicle or one of two BAY treatment regimens (R1 and R2; FIG. 5B).

In the case of `CCn1c(CO)nn(-c2cc(O[C@@H](C)C(F)(F)F)c(C(=O)Nc3c(F)cccc3Cl)cc2F)c1=O` [BAY2402234], the “tolerability over the entire treatment period” value (5 mg/kg) was “well-tolerated”. In addition, under “R2, after the 10 mg/kg doses”, the body weight result is “marginal, temporary weight loss”.
